Measurements reported in US8889722B2, “Pharmaceutical composition containing optically active compound having thrombopoietin receptor agonist activity, and intermediate therefor” (Shionogi & Co., Ltd., priority 2007, dated 2014).

Target: T1, human TPO receptor (Homo sapiens, UniProt P40238)
T1 construct: expressed in transfected cells; host or cells: BaF-B03 (mouse pro-B cell line), strain BaF/hTPOR
T1 sequence (P40238 26-635): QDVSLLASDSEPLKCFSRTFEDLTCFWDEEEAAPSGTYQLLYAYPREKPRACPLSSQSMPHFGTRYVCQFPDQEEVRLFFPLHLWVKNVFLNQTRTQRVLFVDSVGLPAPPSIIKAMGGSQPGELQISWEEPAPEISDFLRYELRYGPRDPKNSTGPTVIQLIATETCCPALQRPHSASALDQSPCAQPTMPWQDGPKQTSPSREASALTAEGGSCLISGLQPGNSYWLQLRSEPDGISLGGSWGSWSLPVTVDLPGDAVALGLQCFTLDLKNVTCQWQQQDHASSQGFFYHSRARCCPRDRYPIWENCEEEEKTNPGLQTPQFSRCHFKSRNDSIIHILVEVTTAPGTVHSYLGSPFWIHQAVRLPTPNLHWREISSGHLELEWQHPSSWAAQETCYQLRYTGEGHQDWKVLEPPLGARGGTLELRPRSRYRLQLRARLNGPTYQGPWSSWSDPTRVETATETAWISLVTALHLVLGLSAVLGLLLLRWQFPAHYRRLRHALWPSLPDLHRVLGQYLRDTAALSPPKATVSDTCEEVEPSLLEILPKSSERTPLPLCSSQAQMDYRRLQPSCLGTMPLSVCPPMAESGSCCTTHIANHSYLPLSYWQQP
Assay: TPO receptor responsiveness: proliferation of TPO-dependent BaF/hTPOR cells (WST-1)
Format: cell-based
Conditions: 20 hours culture, WST-1 absorption at 450 nm, concentration exhibiting half-maximum responsiveness of human TPO, read-out: ED50 (the source's name)
Experimental: TPO receptor responsiveness of the compound represented by the formula (I) was measured using TPO-dependent cell strain BaF/hTPOR made by introducing a human TPO receptor gene into a BaF-B03 cell according to the method described in Collins et al., J. Cell. Physiol., 137: 293-298 (1988). A nucleotide sequence of a gene encoding thrombopoietin receptor is described in Vigon et al., Proc. Natl. Acad. Sci, 89:5640-5644 (1992). […] A BAF/hTPOR cell proliferated in a RPMI medium with 10% WEHI-3 culture solution added thereto was washed with PBS once, suspended in a RPMI medium with no WHEHI-3 culture solution added thereto, and cells were seeded on a 96-well microplate at a 5×10^4/well, and the present compound or TPO was added thereto. After cultured at 37° C. for 20 hours under 5% CO2 atmosphere, a WST-1 reagent (manufactured by Takara Shuzo, Co., Ltd) being a cell proliferation determination reagent was added, and absorption at 450 nm was measured after 4 hours.

Row | SMILES | EC50
1 | CCCCCCO[C@@H](C)c1cccc(-c2csc(NC(=O)c3cc(Cl)c(/C=C(\C)C(=O)O)c(Cl)c3)n2)c1OC [Compound C-3B, (S)-(−)-(E)-3-(2,6-dichloro-4-{4-[3-(1-hexyloxyethyl)-2-methyloxyphenyl]thiazol-2-ylcarbamoyl}phenyl)-2-methylacrylic acid] | 1.09 nM
2 | CCCO[C@H](c1cccc(-c2csc(NC(=O)c3cc(Cl)c(/C=C(\C)C(=O)O)c(Cl)c3)n2)c1OC)C(C)(C)C [Compound C-9B, (S)-(E)-3-(2,6-dichloro-4-{4-[3-(2,2-dimethyl-1-propyloxypropyl)-2-methyloxyphenyl]thiazol-2-ylcarbamoyl}phenyl)-2-methylacrylic acid] | 0.09 nM
3 | CCCCCC[C@@H](OC)c1cccc(-c2csc(NC(=O)c3cc(Cl)c(/C=C(\C)C(=O)O)c(Cl)c3)n2)c1OC [Compound C-1A, (R)-(E)-3-(2,6-dichloro-4-{4-[2-methyloxy-3-(1-methyloxyheptyl)phenyl]thiazol-2-ylcarbamoyl}phenyl)-2-methylacrylic acid] | 3.09 nM
4 | CCCCCC[C@H](OC)c1cccc(-c2csc(NC(=O)c3cc(Cl)c(/C=C(\C)C(=O)O)c(Cl)c3)n2)c1OC [Compound C-1B, (S)-(E)-3-(2,6-dichloro-4-{4-[2-methyloxy-3-(1-methyloxyheptyl)-phenyl]thiazol-2-ylcarbamoyl}phenyl)-2-methylacrylic acid] | 2.08 nM
5 | CCCCCCO[C@H](C)c1cccc(-c2csc(NC(=O)c3cc(Cl)c(/C=C(\C)C(=O)O)c(Cl)c3)n2)c1OC [Compound C-3A, (R)-(E)-3-(2,6-dichloro-4-{4-[3-(1-hexyloxyethyl)-2-methyloxyphenyl]thiazol-2-ylcarbamoyl}phenyl)-2-methylacrylic acid] | 1.4 nM

System: not given
Assay: not given
Conditions: not given

Row | SMILES | melting point
6 | CCCCCC[C@H](OC)c1cccc(-c2csc(NC(=O)c3cc(Cl)c(/C=C(\C)C(=O)O)c(Cl)c3)n2)c1OC [Compound C-1B, (S)-(E)-3-(2,6-dichloro-4-{4-[2-methyloxy-3-(1-methyloxyheptyl)-phenyl]thiazol-2-ylcarbamoyl}phenyl)-2-methylacrylic acid] | 162 to 164 °C
